# Values joined by “and” are separate entries in the source; they are usually repeats but may differ in a detail not shown here. Identical values can stand only once. Inconclusive results and toxic doses are left out.
# Test system: CD2F1 mice, L1210 leukemia ip, survival T/C
# Experiment: NCI In Vivo Anticancer Drug Screen. Data for tumor model L1210 Leukemia (intraperitoneal) in CD2F1 (CDF1) mice
# Details: higher = longer survival
# Summary of the method: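 Activity against a transplanted murine tumor was judged by comparing the compound group with a vehicle group. The outcome in the treated animals was divided by that in the controls.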
# [1] = endpoint: mean survival time, dose: 100.0 mg/kg/injection, schedule: Q01DX001 (ip), vehicle: saline with Tween-80
# [2] = endpoint: mean survival time, dose: 200.0 mg/kg/injection, schedule: Q01DX001 (ip), vehicle: saline with Tween-80
# [3] = endpoint: mean survival time, dose: 400.0 mg/kg/injection, schedule: Q01DX001 (ip), vehicle: saline with Tween-80
# [4] = endpoint: mean survival time, dose: 100.0 mg/kg/injection, schedule: Q04DX003 (ip), vehicle: saline
# [5] = endpoint: mean survival time, dose: 200.0 mg/kg/injection, schedule: Q04DX003 (ip), vehicle: saline
# [6] = endpoint: mean survival time, dose: 400.0 mg/kg/injection, schedule: Q04DX003 (ip), vehicle: saline
# [7] = endpoint: mean survival time, dose: 100.0 mg/kg/injection, schedule: Q01DX009 (ip), vehicle: saline
smiles,measurement,setting,value
O=C(OCC1OC(OC2(COC(=O)c3ccccc3)OC(COC(=O)c3ccccc3)C(OC(=O)c3ccccc3)C2OC(=O)c2ccccc2)C(OC(=O)c2ccccc2)C(OC(=O)c2ccccc2)C1OC(=O)c1ccccc1)c1ccccc1 (centres undefined),T/C,[1],100 % of control
same,T/C,[2],100 % of control
same,T/C,[3],102 % of control
COc1ccc2nc3cc(Cl)ccc3c(Nc3ccc(NC(C)=O)cc3)c2n1,T/C,"endpoint: mean survival time, dose: 25.0 mg/kg/injection, schedule: Q01DX009 (ip), vehicle: other",92 % of control
same,T/C,"endpoint: mean survival time, dose: 50.0 mg/kg/injection, schedule: Q01DX009 (ip), vehicle: other",86 % of control
same,T/C,"endpoint: mean survival time, dose: 100.0 mg/kg/injection, schedule: Q01DX009 (ip), vehicle: other",94 % of control
O=[N+]([O-])c1ccc(S/C=C/c2ccccc2)cc1,T/C,"endpoint: median survival time, dose: 25.0 mg/kg/injection, schedule: Q04DX002 (ip), vehicle: saline with Tween-80",100 % of control
same,T/C,"endpoint: median survival time, dose: 50.0 mg/kg/injection, schedule: Q04DX002 (ip), vehicle: saline with Tween-80",110 % of control
same,T/C,"endpoint: median survival time, dose: 100.0 mg/kg/injection, schedule: Q04DX002 (ip), vehicle: saline with Tween-80",100 % of control
same,T/C,"endpoint: median survival time, dose: 200.0 mg/kg/injection, schedule: Q04DX002 (ip), vehicle: saline with Tween-80",100 % of control
CC(C)NC(=O)/C=C/C(=O)O,T/C,[4],100 % of control
same,T/C,[5],100 % of control
same,T/C,[6],100 % of control
Cc1cc(C)c(S(=O)(=O)Nc2cc(C)ccc2C)c(C)c1,T/C,[1],98 % of control
same,T/C,[2],96 % of control
same,T/C,[3],102 % of control
CN(CC(=O)O)C(=O)c1cc2ccccc2[nH]1,T/C,"endpoint: mean survival time, dose: 37.5 mg/kg/injection, schedule: Q04DX002 (ip), vehicle: saline with Tween-80",101 % of control
same,T/C,"endpoint: mean survival time, dose: 75.0 mg/kg/injection, schedule: Q04DX002 (ip), vehicle: saline with Tween-80",89 % of control
same,T/C,"endpoint: mean survival time, dose: 150.0 mg/kg/injection, schedule: Q04DX002 (ip), vehicle: saline with Tween-80",93 % of control
Cc1c(Cl)cccc1NC(=O)COc1ccc(Cl)cc1Cl,T/C,"endpoint: mean survival time, dose: 100.0 mg/kg/injection, schedule: Q04DX003 (ip), vehicle: saline with Tween-80",94 % of control
same,T/C,"endpoint: mean survival time, dose: 200.0 mg/kg/injection, schedule: Q04DX003 (ip), vehicle: saline with Tween-80",98 % of control
same,T/C,"endpoint: mean survival time, dose: 400.0 mg/kg/injection, schedule: Q04DX003 (ip), vehicle: saline with Tween-80",96 % of control
O=C(O)C1OC12CCCCC2 (centres undefined),T/C,[7],96 % of control
same,T/C,[4],100 % of control
same,T/C,"endpoint: mean survival time, dose: 200.0 mg/kg/injection, schedule: Q01DX009 (ip), vehicle: saline",101 % of control
same,T/C,[5],101 % of control
same,T/C,"endpoint: mean survival time, dose: 400.0 mg/kg/injection, schedule: Q01DX009 (ip), vehicle: saline",100 % of control
same,T/C,[6],103 % of control
Cc1ccc(C)c(NC(=O)NCc2ccccc2)c1,T/C,"endpoint: mean survival time, dose: 100.0 mg/kg/injection, schedule: Q01DX009 (ip), vehicle: saline with Tween-80",97 % of control
same,T/C,"endpoint: mean survival time, dose: 200.0 mg/kg/injection, schedule: Q01DX009 (ip), vehicle: saline with Tween-80",106 % of control
CCCCCCCCCCCCCCCCCC(=O)OCC(=O)OCC(=O)[C@]1(O)Cc2c(O)c3c(c(O)c2[C@@H](OC2CC(N)C(O)C(C)O2)C1)C(=O)c1c(OC)cccc1C3=O (some centres undefined),T/C,"endpoint: mean survival time, dose: 0.37 mg/kg/injection, schedule: Q01DX009 (ip), vehicle: saline",116 % of control
same,T/C,"endpoint: mean survival time, dose: 0.39 mg/kg/injection, schedule: Q01DX005 (ip), vehicle: water",122 % of control and 112 % of control
same,T/C,"endpoint: mean survival time, dose: 0.75 mg/kg/injection, schedule: Q01DX009 (ip), vehicle: saline",115 % of control
same,T/C,"endpoint: mean survival time, dose: 0.78 mg/kg/injection, schedule: Q01DX005 (ip), vehicle: water",118 % of control and 119 % of control
same,T/C,"endpoint: mean survival time, dose: 1.5 mg/kg/injection, schedule: Q01DX009 (ip), vehicle: saline",115 % of control
same,T/C,"endpoint: mean survival time, dose: 3.13 mg/kg/injection, schedule: Q01DX005 (ip), vehicle: other",152 % of control
same,T/C,"endpoint: mean survival time, dose: 3.13 mg/kg/injection, schedule: Q01DX005 (ip), vehicle: water",209 % of control
same,T/C,"endpoint: mean survival time, dose: 6.25 mg/kg/injection, schedule: Q01DX005 (ip), vehicle: other",156 % of control
same,T/C,"endpoint: mean survival time, dose: 6.25 mg/kg/injection, schedule: Q01DX005 (ip), vehicle: water",124 % of control
same,T/C,"endpoint: mean survival time, dose: 12.0 mg/kg/injection, schedule: Q01DX009 (ip), vehicle: saline",157 % of control
same,T/C,"endpoint: mean survival time, dose: 12.5 mg/kg/injection, schedule: Q01DX005 (ip), vehicle: other",90 % of control
CCN(CC)CCCCNc1ccc(NCCCCN(CC)CC)c2c1C(=O)c1ccccc1C2=O,T/C,"endpoint: mean survival time, dose: 25.0 mg/kg/injection, schedule: Q01DX009 (ip), vehicle: saline",109 % of control
same,T/C,"endpoint: mean survival time, dose: 50.0 mg/kg/injection, schedule: Q01DX009 (ip), vehicle: saline",90 % of control
same,T/C,[7],95 % of control
NNC(=O)c1ccc(O)cc1,T/C,[1],90 % of control
same,T/C,[2],94 % of control
same,T/C,[3],96 % of control
C=Cc1nnnn1C12CC3CC(CC(C3)C1)C2,T/C,"endpoint: mean survival time, dose: 50.0 mg/kg/injection, schedule: Q01DX001 (ip), vehicle: saline with Tween-80",106 % of control
same,T/C,[1],112 % of control
